# Molecular target: T1, FAK enzyme (6 His tagged kinase domain, GenBank NP—722560) (Homo sapiens, UniProt Q05397)
# T1 construct: 6 His; made in house; host or cells: insect cell culture infected with baculovirus
# Test: In vitro enzyme assay (a): sandwich ELISA of FAK tyrosine kinase activity on polyGAT peptide, TMB colorimetric endpoint
# Type: biochemical
# Details: in vitro Enzyme Assay test (a); ATP at Km; geometric mean of n > 1 measurements, values marked * tested once
# How it was run: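 Recombinant His-tagged FAK kinase domain (baculovirus/insect cells) phosphorylated plate-coated polyGAT with ATP at Km, MgCl2/MnCl2, HEPES pH 7.4, 25 min at room temperature before EDTA stop. Phosphotyrosine detected by HRP-4G10 antibody and TMB absorbance at 450 nm; IC50 from 12-point curve anchored to DMSO and staurosporine controls.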
# T1 sequence (Q05397 422-680 limits assumed): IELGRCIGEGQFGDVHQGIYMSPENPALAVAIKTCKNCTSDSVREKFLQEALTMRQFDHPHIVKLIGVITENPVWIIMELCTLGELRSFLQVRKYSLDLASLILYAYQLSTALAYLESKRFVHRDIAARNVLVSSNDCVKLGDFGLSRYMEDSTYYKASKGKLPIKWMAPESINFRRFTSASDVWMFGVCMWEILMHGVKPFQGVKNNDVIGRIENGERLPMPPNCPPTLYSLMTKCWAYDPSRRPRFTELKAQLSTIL
row,IC50,Structure (SMILES)
1,6 nM,"CONC(=O)c1c(Nc2cc(Nc3cc(C)nn3C)ncc2C(F)(F)F)cccc1OC [Example 14.03, 2-[[2-[(2,5-dimethylpyrazol-3-yl)amino]-5-(trifluoromethyl)-4-pyridyl]amino]-N,6-dimethoxy-benzamide]"
2,4 nM,"CONC(=O)c1ccc(F)cc1Nc1cc(Nc2cn(C)nc2C)ncc1C(F)(F)F [Example 15.01, 2-[[2-[(1,3-dimethylpyrazol-4-yl)amino]-5-(trifluoromethyl)-4-pyridyl]amino]-4-fluoro-N-methoxy-benzamide]"
3,24 nM,"CNC(=O)c1c(Nc2cc(Nc3c(C)nn(C)c3C)ncc2C(F)(F)F)cccc1OC [Example 15.04, 2-Methoxy-N-methyl-6-[[5-(trifluoromethyl)-2-[(1,3,5-trimethylpyrazol-4-yl)amino]-4-pyridyl]amino]benzamide]"
4,10 nM,"CONC(=O)c1c(Nc2cc(Nc3c(C)nn(C)c3C)ncc2C(F)(F)F)cccc1OC [Example 15.05, N,2-dimethoxy-6-[[5-(trifluoromethyl)-2-[(1,3,5-trimethylpyrazol-4-yl)amino]-4-pyridyl]amino]benzamide]"
5,113 nM,"CCONC(=O)c1ccccc1Nc1cc(Nc2cc(C)nn2C)ncc1C(F)(F)F [Example 15.07, 2-[[2-[(2,5-dimethylpyrazol-3-yl)amino]-5-(trifluoromethyl)-4-pyridyl]amino]-N-ethoxy-benzamide]"

# Continued, molecule first:
row,Structure (SMILES),IC50
1,"CONC(=O)c1ccc(F)cc1Nc1cc(Nc2cc(C)nn2C)ncc1C(F)(F)F [Example 15.02, 2-[[2-[(2,5-dimethylpyrazol-3-yl)amino]-5-(trifluoromethyl)-4-pyridyl]amino]-4-fluoro-N-methoxy-benzamide]",3 nM
2,"CNC(=O)c1ccc(F)cc1Nc1cc(Nc2cc(C)nn2C)ncc1C(F)(F)F [Example 15.03, 2-[[2-[(2,5-dimethylpyrazol-3-yl)amino]-5-(trifluoromethyl)-4-pyridyl]amino]-4-fluoro-N-methyl-benzamide]",6 nM
3,"CONC(=O)c1ccccc1Nc1cc(Nc2c(C)nn(C)c2C)ncc1C(F)(F)F [Example 15.06, N-methoxy-2-[[5-(trifluoromethyl)-2-[(1,3,5-trimethylpyrazol-4-yl)amino]-4-pyridyl]amino]benzamide]",5 nM
4,"Cc1cc(Nc2cc(Nc3ccccc3C(=O)NOCCO)c(C(F)(F)F)cn2)n(C)n1 [Example 15.08, 2-[[2-[(2,5-dimethylpyrazol-3-yl)amino]-5-(trifluoromethyl)-4-pyridyl]amino]-N-(2-hydroxyethoxy)benzamide]",620 nM
5,"CONC(=O)c1cc(F)ccc1Nc1cc(Nc2cc(C)nn2C)ncc1C(F)(F)F [Example 16.01, 2-[[2-[(2,5-dimethylpyrazol-3-yl)amino]-5-(trifluoromethyl)-4-pyridyl]amino]-5-fluoro-N-methoxy-benzamide]",12 nM
6,"CONC(=O)c1cc(F)ccc1Nc1cc(Nc2cn(C)nc2C)ncc1C(F)(F)F [Example 16.02, 2-[[2-[(1,3-dimethylpyrazol-4-yl)amino]-5-(trifluoromethyl)-4-pyridyl]amino]-5-fluoro-N-methoxy-benzamide]",6 nM
